Publication PMC5906745, “Silencing of Chemosensory Protein Gene NlugCSP8 by RNAi Induces Declining Behavioral Responses of Nilaparvata lugens” (Frontiers in Physiology, 2018)
Like-named read-outs stand apart in the source and are kept apart here.

Tests used:
NlugCSP8 [1] = target: T1, NlugCSP8 (Nilaparvata lugens, UniProt B7TVH4); test: Fluorescence competitive ligand binding assay with 1-NPN probe
Protocol: The recombinant pET-30a/CSP8 expression plasmid was transformed into Escherichia coli BL21 (DE3) competent cells. After DNA sequencing, a single positive clone was grown in 10 mL Luria-Bertani (LB) medium containing kanamycin (50 μg/mL) with shaking overnight at 220 rpm and 37°C. The culture was diluted to 2 L LB medium (supplemented with 50 μg/mL kanamycin) and grown at 37°C with shaking at 220 rpm until the culture reached the optical density value of ~0.6–0.7 at 600 nm. The recombinant protein expression was induced by the addition of 2 mM IPTG (Isopropyl β-D-1-thiogalactopyranoside), followed by culturing for 4 h at 37°C. The bacterial cells were harvested by centrifugation (10,000 rpm, 10 min) and sonicated. The expressed protein presented in the supernatant as a soluble form. Then, NlugCSP8 purification was performed using a Ni-ion affinity chromatography column (GE Healthcare, Uppsala, Sweden). His-tag was removed from the recombinant protein with the addition of recombinant bovine enterokinase (EK) in the eluted fractions of protein, followed by 16 h incubation at 25°C. After running the digested protein back through the Ni-ion affinity chromatography column, the tag-free protein was obtained in the flow through fraction. Protein expression and purification steps were assessed by 15% SDS-PAGE (sodium dodecyl sulfate-polyacrylamide gel electrophoresis). Finally, purified protein was dialyzed in Tris buffer (pH 5.0) and (pH 7.4). The concentration of purified protein was determined prior to perform ligand-binding specificities of NlugCSP8 with 25 selected ligands at pH 5.0 and pH 7.4.
Fluorescence-based ligand binding assays were performed based on the method described by Sun X. et al. ([2016]). According to previous studies about the rice-specific volatiles (Fujii et al., [2010]; He et al., [2011]; Yang et al., [2014]; Zhang et al., [2014]), 25 potential ligands were selected for the fluorescence binding assays (Table 1). All the ligands used in this study were purchased from Sigma-Aldrich (St. Louis, MO, USA) and stored according to manufacturer instructions. The ligand binding affinity for various ligands was determined by using the 1-NPN (N-phenyl-1-naphthylamine) as a fluorescent probe. RF-5301PC fluorimeter (Shimadzu, Kyoto, Japan) was used for fluorescence binding assay at 25°C with 10 nm slit width and 1 cm light path quartz cuvette for emission and excitation. The 1-NPN/NlugCSP8 mixture was excited using an excitation wavelength of 337 nm, and the fluorescence intensity was recorded between 350 and 600 nm following an established protocol (Ban et al., [2002]). The 1-NPN and all the potential ligands were prepared in spectrophotometric-grade methanol. The binding constant for 1-NPN was measured by adding aliquots of 1 mM 1-NPN into a 2 μM solution of protein in 30 mM Tris-HCL at room temperature. […] For each test, fluorescence measurement was conducted after the reaction was incubated for 2 min at room temperature (Liu et al., [2015]). Three independent measurements were used to obtain the binding data. 1-NPN/NlugCSP8 dissociation constants (Kd) were calculated from Scatchard plots of the binding data using the Prism 5 software (GraphPad, La Jolla, CA, USA). The curves were linearized using the Scatchard plot program (Campanacci et al., [2001]). The dissociation constants of the competitors were determined by using the corresponding IC50-values according to the equation Ki = [IC50]/ (1+[1-NPN]/K1−NPN), where IC50 represents the concentration of ligand which decreases the fluorescence intensity of [1-NPN], [1-NPN] is the free concentration of 1-NPN and K1−NPN is the dissociation constant of the NlugCSP8/1-NPN complex (Ban et al., [2003]; Tian and Zhang, [2016]). For the reader's convenience, data were recalculated as 1/ki × 1,000, for which a larger value designates a stronger ligand binding affinity.

Nilaparvata lugens [2] = test: H-tube olfactometer behavioral assay; type: in vivo; settings: macropterous adults, vs liquid paraffin
Protocol: BPH behavior responses to different ligands were tested in an H-tube olfactometer similar to which previously used by Yi et al. ([2018]) in our laboratory. The H-tube olfactometer mainly consists of two glass tubes (arms) with gauze at its top end. These two glass tubes were connected by another tube (5 cm in diameter, 20 cm long with a hole of 1 cm in the middle for releasing BPH). Twenty macropterous (10 from each sex) BPH adults were introduced into the H-tube and the number of BPH was counted at 30 min after their introduction. Liquid paraffin was used as in control arm. Rubber septa were absorbed in the liquid paraffin and solutions of the odor molecules to be tested (liquid paraffin+ different concentration of tested volatile) and placed at room temperature. After 24 h, one rubber septa from each control and tested volatile was put in each glass arm. After one replication, rubber septa were changed and three treatments (1, 10, and 100 μl/mL) of tested volatiles against macropterous adults were tested in eight replications. After four replications, the H-tube olfactometer was washed with 75% alcohol and the liquid paraffin rubber septa were placed in another arm to complete the other four replications. The impact of NlugCSP8-dsRNA on the preference of N. lugens was also tested by H-tube olfactometer assays. Corresponding control experiments without dsRNA injection were performed to investigate whether the preference of N. lugens was affected by volatile concentration change. Three treatments of BPH (NlugCSP8-dsRNA injected, GFP-dsRNA injected, and without injection) were tested in four replications. As in case of dsRNA injected insects, the concentration of volatiles that have highly significant attractive results on non-injected insects used for dsCSP8 and dsGFP injected insects. In order to evaluate the best RNAi effect, mRNA levels of NlugCSP8-dsRNA injected insects were determined and compared with the GFP-dsRNA-injected and non-injected insects, prior to H-tube olfactometer bioassay. Based on the findings of previous step, we re-inject the BPH and the individuals with the best post-injection RNAi effect after 7-days, were used in the H-tube olfactometer bioassay. Bioassays were performed under controlled conditions at 26 ± 2°C and 75 ± 5% relative humidity.

NlugCSP8 [3] = target: T1, NlugCSP8; test: Titration of NlugCSP8 with 1-NPN (Scatchard plot); type: binding; settings: read-out: dissociation constant
Protocol: Fluorescence-based ligand binding assays were performed based on the method described by Sun X. et al. ([2016]). According to previous studies about the rice-specific volatiles (Fujii et al., [2010]; He et al., [2011]; Yang et al., [2014]; Zhang et al., [2014]), 25 potential ligands were selected for the fluorescence binding assays (Table 1). All the ligands used in this study were purchased from Sigma-Aldrich (St. Louis, MO, USA) and stored according to manufacturer instructions. The ligand binding affinity for various ligands was determined by using the 1-NPN (N-phenyl-1-naphthylamine) as a fluorescent probe. RF-5301PC fluorimeter (Shimadzu, Kyoto, Japan) was used for fluorescence binding assay at 25°C with 10 nm slit width and 1 cm light path quartz cuvette for emission and excitation. The 1-NPN/NlugCSP8 mixture was excited using an excitation wavelength of 337 nm, and the fluorescence intensity was recorded between 350 and 600 nm following an established protocol (Ban et al., [2002]). The 1-NPN and all the potential ligands were prepared in spectrophotometric-grade methanol. The binding constant for 1-NPN was measured by adding aliquots of 1 mM 1-NPN into a 2 μM solution of protein in 30 mM Tris-HCL at room temperature. […] For each test, fluorescence measurement was conducted after the reaction was incubated for 2 min at room temperature (Liu et al., [2015]). […]

NlugCSP7 = system: NlugCSP7; design: method as in Yang et al., 2014; settings: ref Yang et al., 2014; cited from earlier work
Nilaparvata lugens [4] = test: H-tube olfactometer assay after RNAi (dsRNA-injected BPH); type: in vivo; settings: 10 μl/mL (nerolidol), 100 μl/mL (hexanal); compared with controls
Protocol: BPH behavior responses to different ligands were tested in an H-tube olfactometer similar to which previously used by Yi et al. ([2018]) in our laboratory. The H-tube olfactometer mainly consists of two glass tubes (arms) with gauze at its top end. These two glass tubes were connected by another tube (5 cm in diameter, 20 cm long with a hole of 1 cm in the middle for releasing BPH). Twenty macropterous (10 from each sex) BPH adults were introduced into the H-tube and the number of BPH was counted at 30 min after their introduction. Liquid paraffin was used as in control arm. Rubber septa were absorbed in the liquid paraffin and solutions of the odor molecules to be tested (liquid paraffin+ different concentration of tested volatile) and placed at room temperature. After 24 h, one rubber septa from each control and tested volatile was put in each glass arm. After one replication, rubber septa were changed and three treatments (1, 10, and 100 μl/mL) of tested volatiles against macropterous adults were tested in eight replications. […] In order to evaluate the best RNAi effect, mRNA levels of NlugCSP8-dsRNA injected insects were determined and compared with the GFP-dsRNA-injected and non-injected insects, prior to H-tube olfactometer bioassay. […]

[5] = pH 5.0, calculated from IC50, read-out: Ki
[6] = pH 7.4, calculated from IC50, read-out: Ki
[7] = Ki, pH 5.0, calculated from IC50
[8] = Ki, pH 7.4, calculated from IC50

T1 sequence (B7TVH4 entry or part of it): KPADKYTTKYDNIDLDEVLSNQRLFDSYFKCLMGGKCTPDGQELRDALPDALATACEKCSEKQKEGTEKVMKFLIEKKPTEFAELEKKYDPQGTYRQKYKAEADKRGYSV

| Molecule | Ki (NlugCSP8 [1]; [5]) [µM] | IC50 (NlugCSP8 [1]; pH 5.0, read-out: IC50) [µM] | Ki (NlugCSP8 [1]; [6]) [µM] | IC50 (NlugCSP8 [1]; pH 7.4, read-out: IC50) [µM] | IC50 (NlugCSP8 [1]; IC50, pH 5.0) [µM] | IC50 (NlugCSP8 [1]; IC50, pH 7.4) [µM] | Ki (NlugCSP8 [1]; [7]) [µM] | Ki (NlugCSP8 [1]; [8]) [µM] | also measured |
| --- | --- | --- | --- | --- | --- | --- | --- | --- | --- |
| Farnesene | 173 | 199 | 44.8 | 53.8 |  |  |  |  | Ki (NlugCSP8 [1]; pH 5.0, calculated from IC50, listed as farnesene, read-out: Ki): > 40 µM; Ki (NlugCSP8 [1]; pH 7.4, calculated from IC50, listed as farnesene, read-out: Ki): > 40 µM |
| CCCCCCCCCCCCCCCCCCCC [Eicosane] | 12.2 | 14 | 12.4 | 14.9 |  |  |  |  |  |
| CCCCCC(C)O (stereo not shown) [2-Heptanol] | 9.77 | 11.2 | 13.8 | 16.5 |  |  |  |  | behavioral response of BPH (Nilaparvata lugens [2]; concentration not given): significant aversion |
| CC1=CCC(=C(C)C)CC1 [Terpinolene] |  |  |  |  | 31.2 | 25.6 | 27.2 | 21.3 |  |
| CCC/C=C/CO [Trans-2-hexen-1-ol] |  |  |  |  | 18.2 | 25.9 | 15.9 | 21.5 |  |
| CC1=CC[C@](O)(C(C)C)CC1 [(–)-Terpinen-4-ol] |  |  |  |  | 11.4 | 19 | 9.97 | 15.8 | behavioral response of BPH (Nilaparvata lugens [2]; 1 μl/mL): attractive; behavioral response of BPH (Nilaparvata lugens [2]; 10 μl/mL): attractive |
| c1ccc(Nc2cccc3ccccc23)cc1 [1-NPN, N-phenyl-1-naphthylamine] |  |  |  |  |  |  |  |  | Kd (NlugCSP8 [3]; pH 5.0): 6.8 µM; Kd (NlugCSP8 [3]; pH 7.4): 4.99 µM |
| Cc1ccc(C(C)C)cc1 [4-Isopropyl to luene] |  |  |  |  | 22.7 | 20.3 | 19.8 | 16.9 |  |
| CCCCCCCCCCCC=O [Dodecyl aldehyde] | 28.4 | 32.6 | 12.2 | 14.6 |  |  |  |  |  |
| CCCCCCCCCCCCCCCC [Hexadecane] | 23.8 | 27.3 | 15.9 | 19 |  |  |  |  |  |
| OC1CCCCC1 [Cyclohexanol] |  |  |  |  | 95.5 | 51.2 | 83.3 | 42.7 |  |
| CC1=CCC2C(C1)C2(C)C (single isomer, unassigned; (+)) [(+)-3-Carene] | 34.8 | 39.9 | 27 | 32.4 |  |  |  |  |  |
| CCC/C=C/C=O [Trans-2-hexenal] |  |  |  |  | 11.6 | 28 | < 10 | 23.3 | behavioral response of BPH (Nilaparvata lugens [2]; concentration not given): significant aversion |
| (–)-Limoonene | 17.8 | 20.4 | 20.4 | 24.4 |  |  |  |  |  |
| CC1=CC=C(C(C)C)CC1 [α-Terpinene] |  |  |  |  | 16.4 | 16.6 | 14.3 | 13.8 |  |
| C=CC(C)(O)CCC=C(C)C (stereo not shown) [Linalool] |  |  |  |  | 36.9 | 23.4 | 32.2 | 19.5 |  |
| C=CC(O)CCCCC (stereo not shown) [1-Octen-3-ol] | 19.2 | 22.1 | 19.4 | 23.3 |  |  |  |  |  |
| CC1=CC[C@@H](C(C)(C)O)CC1 [α-Terpineol] |  |  |  |  | 15.5 | 24.1 | 13.5 | 20.1 |  |
| COC(=O)c1ccccc1 [Methyl benzoate] |  |  |  |  | 17.8 | 23.6 | 15.5 | 19.6 |  |
| C=CC(C)(O)CCC=C(C)CCC=C(C)C (mixture of isomers) [Nerolidol] | 8.38 | 9.61 | 10 | 12 |  |  |  |  | binding affinity with NlugCSP7 (NlugCSP7): weak affinities; behavior response of dsCSP8-injected (RNAi) BPH to attractant (Nilaparvata lugens [4]): attraction activity was completely lost and lost; behavioral response of BPH (Nilaparvata lugens [2]; 10 μl/mL): significant attraction |
| CC/C=C\CCO [Cis-3-hexen-1-ol] |  |  |  |  | 38 | 27.5 | 33.1 | 22.9 |  |
| CCC(O)CC [3-Pentanol] | 27.4 | 31.4 | 19.6 | 23.5 |  |  |  |  |  |
| C=C(C)[C@H]1CC=C(C)CC1 [R-(+)-limonene] | 12.6 | 14.4 | 13.2 | 15.9 |  |  |  |  |  |
| CCCCCCCCCCCCCCCCCCC [Nonadecane] | 24.6 | 28.3 | 14.3 | 17.2 |  |  |  |  |  |
